Laboratory results from patent publication US4264577A, “Contraceptive methods and compositions” (Eli Lilly and Company, priority 1980, dated 1981).

Assays:
[1] = Drug release rate in vitro from dimethylpolysiloxane rubber rod, Method B (water, methylene blue method); format: physicochemical; details: rod 341.4 mg, 10% W/W
Protocol: A dimethylpolysiloxane rubber rod (3 cm. long, 3 mm. diameter) weighing 341.4 mg. and containing 10% (W/W) of dispersed sodium n-tetradecyl sulfate (prepared by Example 3, Method B, lot no. 225-1) is placed in a container and is covered with 10 ml. of water. The rod and the water are incubated together at 37° C. for a seven-day period, after which the water is removed. The sodium n-tetradecyl sulfate in the water is determined by the methylene blue method as described by K. Hiyashi, Analytical Biochemistry, 67, 503 (1975).
The above procedure may be repeated at 7-day intervals by adding fresh water to the rod after each removal of water for assay. Table 5, below, gives the results of a test performed as above-described for 140 days.

[2] = test system: Dutch belted virgin rabbits; assay: Antifertility effect by intrauterine administration (medicated rubber rod in uterine horn); format: in vivo, rabbit; details: 40-mg rod, 10% W/W, in right uterine horn; 8 uterine horns; 14 days after breeding
Protocol: Dutch belted virgin rabbits, each weighing 3-4 pounds, are randomly selected and anesthetized with sodium pentobarbital ([…].) administered by IV drip. The uterus of each animal is exposed and a 40-mg. sample in the shape of a rod (3 mm. in diameter) of dimethylpolysiloxane rubber (as prepared in Example 3, Method A) containing 10% W/W of sodium tetradecyl sulfate is sutured into the right uterine horn at a random location in between the cervix and the uterotubal junction. The left horn is left untreated to serve as control. The rubber rod is placed into the uterine horn by passing a curved needle through it and through the uterine wall pulling the rod into the uterine lumen. The entry is closed by suturing. Animals (blank) are similarly treated using unmedicated dimethylpolysiloxane rubber to serve as a second group of controls. The animals are given 300,000 units of Duracillin®) per day (in four doses) and are allowed to recover for 14 days. Each animal is bred to a male of proven fertility and is immediately given a dose (IV) of appropoximately 100 units of human chorionic gonadotropin (HCG) to facilitate ovulation. Fourteen days after breeding, the animal are sacrificed by cervical dislocation and the uterine horns are examined for implanted embryos. The number of embryos per uterine horn are recorded. […]

[3] = test system: cumulus oophorus of rabbit ova; assay: Removal of cumulus oophorus from ova by hyaluronidase, in vitro; format: cell-based; details: 10 μl. of 10 mg./ml. solution in 1 ml medium, 37° C.; sulfate
Protocol: (§1) In the absence of sodium n-tetradecyl sulfate, complete removal of the cumulus oophorus and zona pellucida is observed.
Female rabbits are given 100 units of pregnant mares serum (PMS), IM, and 134 units of HCG, IV. After 13 hours the animals are sacrificed, and the ovaries are excised. The ovaries are submerged in calcium-free Ringer's solution containing 20% rabbit serum which had been heated to 55° C. for 20 minutes. Ova with cumulus intact are removed and placed in calcium-free Ringer's solution for incubation at 37° C. Hyaluronidase (10 μl.) of a 10 mg./ml. solution in calcium-free Ringer's solution is added to 20 ova in 1 ml. of the incubation medium. To 10 ova in the same medium is added 10 μl. of a solution of sodium n-tetradecyl sulfate (10 mg./ml.) in calcium-free Ringer's solution. To 10 other ova in the same media is added 10 μl. of calcium-free Ringer's solution as control. The mixtures are incubated at 37° C., and the cumulus oophorus is examined at 15 minute intervals with an American Optical stereomicroscope. In the absence of sodium tetradecyl sulfate, the cumulus oophorus is completely removed.

[4] = test system: zona pellucida of rabbit ova; assay: Removal of zona pellucida from ova by acrosin, in vitro; format: cell-based; details: 10 μl. of 10 mg./ml. solution, 37° C.; sulfate
Protocol: as §1
Female rabbits are given 100 units of pregnant mares serum (PMS), IM, and 134 units of HCG, IV. After 13 hours the animals are sacrificed and the ovaries are excised. The ovaries are submerged in calcium-free Ringer's solution. Ova are removed and placed in 1 ml. of calcium-free Ringer's solution The solutions are all shaken vigorously for 5 to 10 minutes, which rids the ova of the cumulus oophorus and the corona radiata. Acrosin (isolated from boar sperm) (100 μl., of a solution containing 2000 U/ml. in 0.1 M sodium acetate and 0.02 M calcium chloride) is added to each of 10 ova. To each of 10 other ova in the same medium is added 10 μl. of solution of sodium n-tetradecyl sulfate (10 mg./ml.) in calcium-free Ringer's solution. To 10 other ova is added […]. of calcium-free Ringer's solution as a control. The solutions are all incubated at 37° C. The zona pellucida is observed at 15 minute intervals with an American Optical stereomicroscope. In the absence of sodium n-tetradecyl sulfate, the zona pellucida is completely removed.

rats = details: orally (rats); cited from earlier work
mice = details: I.P. (mice); cited from earlier work

CCCCCCCCCCCCCCOS(=O)(=O)[O-].[Na+] [n-tetradecyl, sodium n-tetradecyl sulfate]
Amount of sodium n-tetradecyl sulfate released Per day Calc. ([1]; Day 7): 1.3 µg
Amount of sodium n-tetradecyl sulfate released Per 7 days ([1]; Day 7, 10 ml water 37° C.): 9 µg
Amount of sodium n-tetradecyl sulfate released Per 7 days ([1]; Day 14): 1.9 µg
Amount of sodium n-tetradecyl sulfate released Per day Calc. ([1]; Day 14): 0.3 µg
Amount of sodium n-tetradecyl sulfate released Per 7 days ([1]; Day 21): 34.2 µg
Amount of sodium n-tetradecyl sulfate released Per day Calc. ([1]; Day 21): 4.9 µg
Amount of sodium n-tetradecyl sulfate released Per 7 days ([1]; Day 28): 160 µg
Amount of sodium n-tetradecyl sulfate released Per day Calc. ([1]; Day 28): 22.8 µg
Amount of sodium n-tetradecyl sulfate released Per 7 days ([1]; Day 35): 290 µg
Amount of sodium n-tetradecyl sulfate released Per day Calc. ([1]; Day 35): 41.4 µg
Amount of sodium n-tetradecyl sulfate released Per 7 days ([1]; Day 42): 144 µg
Amount of sodium n-tetradecyl sulfate released Per day Calc. ([1]; Day 42): 20.6 µg
Amount of sodium n-tetradecyl sulfate released Per 7 days ([1]; Day 49): 947 µg
Amount of sodium n-tetradecyl sulfate released Per day Calc. ([1]; Day 49): 135.3 µg
Amount of sodium n-tetradecyl sulfate released Per 7 days ([1]; Day 56): 133 µg
Amount of sodium n-tetradecyl sulfate released Per day Calc. ([1]; Day 56): 19 µg
Amount of sodium n-tetradecyl sulfate released Per 7 days ([1]; Day 63): 111 µg
Amount of sodium n-tetradecyl sulfate released Per day Calc. ([1]; Day 63): 16 µg
Amount of sodium n-tetradecyl sulfate released Per 7 days ([1]; Day 70): 333 µg
Amount of sodium n-tetradecyl sulfate released Per day Calc. ([1]; Day 70): 47.5 µg
Amount of sodium n-tetradecyl sulfate released Per 7 days ([1]; Day 77): 111 µg
Amount of sodium n-tetradecyl sulfate released Per day Calc. ([1]; Day 77): 16.0 µg
Amount of sodium n-tetradecyl sulfate released Per 7 days ([1]; Day 84): 0 µg
Amount of sodium n-tetradecyl sulfate released Per day Calc. ([1]; Day 84): 0 µg
Amount of sodium n-tetradecyl sulfate released Per 7 days ([1]; Day 91): 105 µg
Amount of sodium n-tetradecyl sulfate released Per day Calc. ([1]; Day 91): 15 µg
Amount of sodium n-tetradecyl sulfate released Per 7 days ([1]; Day 98): 644 µg
Amount of sodium n-tetradecyl sulfate released Per day Calc. ([1]; Day 98): 92 µg
Amount of sodium n-tetradecyl sulfate released Per 7 days ([1]; Day 105): 1477 µg
Amount of sodium n-tetradecyl sulfate released Per day Calc. ([1]; Day 105): 211 µg
Amount of sodium n-tetradecyl sulfate released Per 7 days ([1]; Day 112): 430 µg
Amount of sodium n-tetradecyl sulfate released Per day Calc. ([1]; Day 112): 61.4 µg
Amount of sodium n-tetradecyl sulfate released Per 7 days ([1]; Day 119): 600 µg
Amount of sodium n-tetradecyl sulfate released Per day Calc. ([1]; Day 119): 85.7 µg
Amount of sodium n-tetradecyl sulfate released Per 7 days ([1]; Day 126): 1500 µg
Amount of sodium n-tetradecyl sulfate released Per day Calc. ([1]; Day 126): 214.3 µg
Amount of sodium n-tetradecyl sulfate released Per 7 days ([1]; Day 133): 2600 µg
Amount of sodium n-tetradecyl sulfate released Per day Calc. ([1]; Day 133): 371 µg
Amount of sodium n-tetradecyl sulfate released Per 7 days ([1]; Day 140): 4000 µg
Amount of sodium n-tetradecyl sulfate released Per day Calc. ([1]; Day 140): 571 µg
Percent of compound released after 140 days ([1]; initial amount 34.14 mg.): 37%
Total amount of compound released after 140 days ([1]; initial amount 34.14 mg.): 12.63 mg
Embryos Horn (x ± S.D.) [2]: 0
Total No. of embryos [2]: 0
state of cumulus oophorus in presence of hyaluronidase [3]: remains substantially intact
state of zona pellucida in presence of acrosin [4]: remains substantially intact
LD50 (rats): greater than 3.5 g/kg.
LD50 (mice): 342 mg/kg
